Results reported in patent US20260035670A1, “IN VITRO CONSTRUCT USEFUL FOR DRUG TOXICITY SCREENING” (Wake Forest University Health Sciences, priority 2022, published 2026).

How the values were obtained:
[1] = tested on: USC in 3D silk fiber matrix (3D USC-SFM); assay: mtDNA content (q-PCR) and mitochondrial mass of USC in 3D USC-SFM treated with ddC; format: cell-based, human
Description: (§1) To determine the dose effect of ddC on cell viability, mitochondrial function and oxidative stress of USC in both 3D cultures, ddC was added to spheroids and USC-SFM at different doses: […] 2 days, 3 replicates per concentration. To evaluate the time-dependent effect of ddC on USC in 3D cultures, spheroids and USC-SFM samples were assayed 2-6 weeks after administering ddC, 3 replicates per time point. DMSO (0.1%) was used as a control.
(§2) To measure the levels of cell senescence genes ([…], 21 and Rb) (Kang et al. Science 349 (2015) aaa5612) and mitochondrial DNA (mtDNA) content, mRNA expression of spheroid (n ¼ 3) and 3D USC-SFM (n ¼ 3) samples were assessed using BioRad CFX connect Real-time PCR Detection System (Rooney et al. Methods Mol. Biol. 1241 (2015) 23e38). Genomic DNA was extracted from the cells using a DNeasy Blood & Tissue Kit (Qiagen, Valencia, Cat. No 69504) according to the manufacturer's protocol. The Q-PCR recipe was a mix with SYBR Green SuperMix (ThermoFisher, USA, Cat. No 4367659) using both the mitochondrial and the nuclear primers, and this temperature cycling was used: initial denaturing at 50° C. for 2 min, 95° C. for 15 min, followed by 40 cycles of denaturing at 95° C. for 30 s, annealing at 60° C. for 1 s and extension at 95° C. for 15 s, 60° C. for 1 min, annealing at 95° C. for 15 s, 60° C. for 1 min and dissociating at 95° C. for 15 s.

[2] = tested on: USC in 3D spheroids; assay: mtDNA content (q-PCR) and mitochondrial mass of USC in 3D spheroids treated with ddC; format: cell-based, human
Description: (§3) To determine the dose effect of ddC on cell viability, mitochondrial function and oxidative stress of USC in both 3D cultures, ddC was added to spheroids and USC-SFM at different doses: 0.2, 2 and 10 μM in the culture medium every 2 days, 3 replicates per concentration. To evaluate the time-dependent effect of ddC on USC in 3D cultures, spheroids and USC-SFM samples were assayed 2-6 weeks after administering ddC, 3 replicates per time point. DMSO (0.1%) was used as a control.
as §2

[3] = tested on: USC in 3D USC-SFM; assay: Cell viability/growth of 3D USC-SFM treated with ddC (CCK-8); format: cell-based, human
Description: as §3, with “Cell proliferation or viability was measured at different time points after USC were seeded on 2D, spheroids and 3D-SFM in 96-well plates, respectively, assessed by Cell Counting Kit-8 (CCK-8 assay, Dojindo, Japan), according to manufacturer's instructions. The absorbance at 450 nmwas measured using microplate reader (MultiSkan FC, Thermo, USA). To determine” for “To determine”

[4] = tested on: USC in 2D culture; assay: Cell viability and growth of USC in 2D culture treated with ddC; format: cell-based, human
Description: Cell proliferation or viability was measured at different time points after USC were seeded on 2D, spheroids and 3D-SFM in 96-well plates, respectively, assessed by Cell Counting Kit-8 (CCK-8 assay, Dojindo, Japan), according to manufacturer's instructions. The absorbance at 450 nmwas measured using microplate reader (MultiSkan FC, Thermo, USA).

[5] = tested on: oxidative phosphorylation complexes I-V in USC of 3D USC-SFM; assay: Oxidative phosphorylation complexes I-V in 3D USC-SFM after ddC (Western blot); format: cell-based, human
Description: as §1
(§4) To generate sufficient cell numbers for immunoblot analysis, USC (5×10^5 cells) within spheroids and 1-SFM were loaded in 81-well molds made by Micro-Tissues 3D Petri Dish (Sigma, USA). USC in 2D culture were seeded onto a 6-well plate at a density of 5×10^5 cells/well as control. After a wash of the cell samples with PBS, the USC were harvested and incubated for 30 min in the presence of […] of lysis buffer (Pierce, Rockford, IL) with 1% protease/phosphatase inhibitor cocktail (Cell Signaling Technology, Danvers, MA), vortexing every 5 min during incubating. The lysate was clarified by centrifugation, and protein concentrations were tested by Pierce™ BCA Protein Assay Kit. Following separation in 15% SDS-PAGE gels, the proteins were transferred onto a PVDF membrane (ThermoFisher) by a Bio-Rad Trans-Blot SD Semi-Dry Transfer Cell under 12 V for 1 h.
(§5) Individual activity of oxidative phosphorylation complexes I, II, II IV, V94 and mitochondrial SOD2 in USC before or after treatment with ddC at three doses were assessed. The membrane was blocked for 30 min in PBS-0.1% Tween 20 (PBST) containing 5% bovine serum albumin (BSA), washed with PBST, and incubated with the primary antibodies for 2 h or 4° C. overnight, diluted by PBST containing 5% BSA. After extensive washing with PBST, the membrane was incubated in the secondary antibodies correspondingly for 1 h at room temperature. The washed membrane was treated with an Immobilon ECL Ultra Western HRP Substrate (Millipore Sigma) and analyzed with a Fujifilm LAS-3000 Luminescent Image Analyzer system.

[6] = tested on: oxidative phosphorylation complexes I-V in USC of 3D spheroids; assay: Oxidative phosphorylation complexes I-V in 3D USC spheroids after ddC (Western blot); format: cell-based, human
Description: as §3, §4, §5

[7] = tested on: microglia cells; conditions: George et al. 2021; cited from earlier work
[8] = Gorwood et al. 2020; cited from earlier work
[9] = tested on: CD4+ T cells; conditions: Korencak et al. 2019; cited from earlier work
[10] = 3D USC-SFM, six weeks after ddC (0.2, 2, and 10 μM), vs 0.1% DMSO control
[11] = 3D spheroids, six weeks after ddC (0.2, 2, and 10 µM), vs 0.1% DMSO control

Nc1ccn([C@H]2CC[C@@H](CO)O2)c(=O)n1 [ddC, Zalcitabine]
Levels of mtDNA content ([1]; 3D USC-SFM, 2 and 6 weeks, ddC 0.2, 2, or 20 μM, vs DMSO standardized as 100%): significantly decreased | Manner of decrease of mtDNA content ([1]; 3D USC-SFM, q-PCR): time-depended manner | mitochondrial mass [1, 10]: significantly decreased | mtDNA content [1, 10]: significantly decreased | mtDNA content ([1]; ddC at 2 or 20 μM compared to 0.1 μM ddC, 3D culture of USC (model not given)): significantly inhibited | Levels of mtDNA content ([2]; 3D spheroid of USC, 2 and 6 weeks, ddC 0.2, 2, or 20 μM, vs DMSO standardized as 100%): significantly decreased | Manner of decrease of mtDNA content ([2]; 3D spheroids of USC, q-PCR): dose-dependent manner | mitochondrial mass [2, 11]: significantly decreased | mtDNA content [2, 11]: significantly decreased | cell survival and growth ([3]; 3D USC-SFM, 3 days, or 1, 2, 4, and 6 weeks): did not significantly affect | cytotoxicity ([3]; USC in 3D cultures): mild | cell viability and growth of USC [4]: significantly affected | cells remaining on the dishes ([4]; 2 weeks after ddC treatment): few cells remaining | levels of complex I, and IV ([5]; 2 weeks, ddC 2 and 10 μM vs low dose (0.1 μM)): significantly decreased | mitochondrial toxicity (decreasing levels of complexes I-IV) ([5]; 3D SFM): significant dose- and time-dependent | Levels of complexes I, II, and III ([5]; 3D SFM-USC treated with ddC): significantly decreased | levels of complexes II, III and IV ([5]; 3D USC-SFM compared to complex levels in spheroids): significantly decreased | chronic MtT ([5]; 3D USC-SFM model): dose- and time-dependent chronic MtT displayed | complex I-IV levels ([5]; 3D USC-SFM, ddC 2 and 10 μM, 6 weeks compared to 2 weeks): significantly decreased | increase of levels of complexes I, II and IV ([5]; 3D USC-SFM, low dose ddC): did not occur | mitochondrial function (inhibiting oxidative phosphorylation complex I-IV) ([5]; 3D culture models): significant impairment | levels of complex I, II, III and IV ([5]; 6 weeks, middle and high dose ddC vs low dose): significantly declined | activity of complex II-IV ([5]; USC-SFM, ddC middle and high doses vs low dose, week 6): significantly decreased | expression of ETC complex I-IV ([5]; USC-SFM, ddC middle and high doses, wk 6): decrease | expression of ETC complex I-IV ([6]; 3D organoids, ddC middle and high doses, wk 6): decrease | levels of complexes I, II and IV ([6]; 3D spheroids, low dose ddC): significantly increased | mitochondrial toxicity (decreasing levels of complexes I-IV) ([6]; spheroids): significant dose- and time-dependent | complex I level (only complex affected) ([6]; spheroids treated with ddC): declined

C[C@@H]1CCO[C@H]2Cn3cc(C(=O)NCc4ccc(F)cc4F)c(=O)c(O)c3C(=O)N12 [dolutegravir]
mitochondrial dysfunction [7]: induces mitochondrial dysfunction | pro-adipogenic and pro-lipogenic effects, oxidative stress, mitochondrial dysfunction, insulin resistance [8]: display pro-adipogenic and pro-lipogenic effects, and promote oxidative stress, mitochondrial dysfunction, and insulin resistance | levels of mitochondrial ROS and mitochondrial mass [9]: increased

COc1cc2c(cc1Cc1cccc(Cl)c1F)c(=O)c(C(=O)O)cn2[C@H](CO)C(C)C [elvitegravir]
levels of mitochondrial ROS and mitochondrial mass [9]: increased
